According to paper PMC9639481, “Discovery of dual tubulin-NEDDylation inhibitors with antiproliferative activity” (Journal of Enzyme Inhibition and Medicinal Chemistry, 2022):

Key:
tubulin [1] = system: T1, tubulin; assay: in vitro tubulin polymerisation assay; supported by immunofluorescence of microtubules in HepG2 cells; type: biochemical
T1 construct: with alpha/beta-tubulin heterodimer

tubulin [2] = system: T1, tubulin; assay: in vitro tubulin polymerisation assay; type: biochemical

| IC50 (tubulin [1]) [nM] | IC50 (tubulin [2]) [nM] | SMILES |
| --- | --- | --- |
| 2400 | – | COc1ccc(CN(C(=O)CSC(=S)N2CCCCC2)c2cc(OC)c(OC)c(OC)c2)cc1 [C11, 2-((4-Methoxybenzyl)(3,4,5-trimethoxyphenyl)amino)-2-oxoethylpiperidine-1-carbodithioate] |
| – | > 4000 | COc1ccc(CN(C(=O)CSC(=S)N2CC(C)CC(C)C2)c2cc(OC)c(OC)c(OC)c2)cc1 (centres unmarked) [C14, 2-((4-Methoxybenzyl)(3,4,5-trimethoxyphenyl)amino)-2-oxoethyl-3,5-dimethylpiperidine-1-carbodithioate] |
